Data published in patent publication US11174268B2, “Benzenesulfonamide compouds and their use as therapeutic agents” (Xenon Pharmaceuticals Inc., priority 2016, dated 2021).
Counter-ions that a name gives are not always drawn. Like-named read-outs stand apart in the source and are kept apart here.

Columns and labels:
NaV1.6 [1] = target: T1, NaV1.6 (Homo sapiens (Human), UniProt Q9UQD0); assay: Electrophysiological Assay (EP), patch voltage clamp, NaV1.6; type: cell-based; settings: HEK-293 cells, whole-cell patch clamp;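 further: sodium current recorded at ambient temperature, channels held inactivated then briefly repolarized to −150 mV for 20 ms before a test pulse, control currents in 0.5% DMSO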
T1 sequence (Q9UQD0 whole entry): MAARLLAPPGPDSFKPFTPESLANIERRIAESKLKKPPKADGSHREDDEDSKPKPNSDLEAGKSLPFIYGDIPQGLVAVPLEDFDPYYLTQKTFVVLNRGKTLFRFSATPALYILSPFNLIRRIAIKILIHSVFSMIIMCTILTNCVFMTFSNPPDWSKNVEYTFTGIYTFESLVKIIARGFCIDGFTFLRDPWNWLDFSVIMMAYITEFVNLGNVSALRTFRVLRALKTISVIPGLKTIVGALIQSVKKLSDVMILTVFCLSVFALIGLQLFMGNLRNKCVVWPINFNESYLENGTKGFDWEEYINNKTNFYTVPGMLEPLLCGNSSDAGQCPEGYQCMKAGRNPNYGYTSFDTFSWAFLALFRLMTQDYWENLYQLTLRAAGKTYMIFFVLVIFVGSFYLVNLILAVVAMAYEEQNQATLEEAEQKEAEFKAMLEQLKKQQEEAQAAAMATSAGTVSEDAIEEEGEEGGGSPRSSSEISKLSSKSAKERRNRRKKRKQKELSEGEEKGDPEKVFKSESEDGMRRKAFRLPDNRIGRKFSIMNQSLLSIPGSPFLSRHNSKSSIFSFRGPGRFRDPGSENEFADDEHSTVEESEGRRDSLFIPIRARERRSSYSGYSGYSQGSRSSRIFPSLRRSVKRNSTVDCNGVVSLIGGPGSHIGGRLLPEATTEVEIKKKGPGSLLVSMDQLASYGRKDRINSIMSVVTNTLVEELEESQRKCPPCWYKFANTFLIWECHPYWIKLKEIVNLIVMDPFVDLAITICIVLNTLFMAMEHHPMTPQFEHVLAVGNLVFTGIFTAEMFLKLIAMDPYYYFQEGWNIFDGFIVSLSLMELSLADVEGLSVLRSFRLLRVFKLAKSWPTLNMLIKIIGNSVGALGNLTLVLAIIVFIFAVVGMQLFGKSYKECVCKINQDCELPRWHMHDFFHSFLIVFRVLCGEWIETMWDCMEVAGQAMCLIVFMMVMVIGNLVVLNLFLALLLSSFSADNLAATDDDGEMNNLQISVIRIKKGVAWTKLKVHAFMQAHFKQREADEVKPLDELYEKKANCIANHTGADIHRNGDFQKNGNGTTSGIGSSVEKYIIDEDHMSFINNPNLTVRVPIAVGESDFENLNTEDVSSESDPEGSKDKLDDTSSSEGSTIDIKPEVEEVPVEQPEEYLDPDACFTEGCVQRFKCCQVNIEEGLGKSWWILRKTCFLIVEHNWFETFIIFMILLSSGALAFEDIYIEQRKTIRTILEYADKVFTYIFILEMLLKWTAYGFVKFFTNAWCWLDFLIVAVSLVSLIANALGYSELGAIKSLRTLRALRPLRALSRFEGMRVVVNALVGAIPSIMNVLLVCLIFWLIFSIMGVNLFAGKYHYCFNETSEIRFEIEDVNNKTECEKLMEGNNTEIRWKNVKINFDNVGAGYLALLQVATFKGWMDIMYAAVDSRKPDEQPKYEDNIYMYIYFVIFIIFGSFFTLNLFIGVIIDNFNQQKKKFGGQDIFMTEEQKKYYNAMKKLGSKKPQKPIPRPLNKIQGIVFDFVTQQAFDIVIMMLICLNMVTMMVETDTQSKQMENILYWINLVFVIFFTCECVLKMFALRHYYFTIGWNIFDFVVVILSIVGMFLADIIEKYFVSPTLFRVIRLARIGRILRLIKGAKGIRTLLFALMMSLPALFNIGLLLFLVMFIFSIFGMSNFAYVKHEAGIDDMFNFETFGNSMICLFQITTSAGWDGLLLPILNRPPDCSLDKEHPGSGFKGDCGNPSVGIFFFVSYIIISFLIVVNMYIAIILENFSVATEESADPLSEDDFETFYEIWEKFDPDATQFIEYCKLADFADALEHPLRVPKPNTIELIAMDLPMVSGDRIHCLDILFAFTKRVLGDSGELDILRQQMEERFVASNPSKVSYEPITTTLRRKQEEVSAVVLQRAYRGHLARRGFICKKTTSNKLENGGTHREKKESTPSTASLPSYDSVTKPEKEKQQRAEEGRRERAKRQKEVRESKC

NaV1.5 = NaV1.5 (Homo sapiens (Human), UniProt Q14524); assay: Sodium Influx Assay (Flux), NaV1.5
NaV1.5, sequence (Q14524 other isoform, or with tags, fused parts or gaps): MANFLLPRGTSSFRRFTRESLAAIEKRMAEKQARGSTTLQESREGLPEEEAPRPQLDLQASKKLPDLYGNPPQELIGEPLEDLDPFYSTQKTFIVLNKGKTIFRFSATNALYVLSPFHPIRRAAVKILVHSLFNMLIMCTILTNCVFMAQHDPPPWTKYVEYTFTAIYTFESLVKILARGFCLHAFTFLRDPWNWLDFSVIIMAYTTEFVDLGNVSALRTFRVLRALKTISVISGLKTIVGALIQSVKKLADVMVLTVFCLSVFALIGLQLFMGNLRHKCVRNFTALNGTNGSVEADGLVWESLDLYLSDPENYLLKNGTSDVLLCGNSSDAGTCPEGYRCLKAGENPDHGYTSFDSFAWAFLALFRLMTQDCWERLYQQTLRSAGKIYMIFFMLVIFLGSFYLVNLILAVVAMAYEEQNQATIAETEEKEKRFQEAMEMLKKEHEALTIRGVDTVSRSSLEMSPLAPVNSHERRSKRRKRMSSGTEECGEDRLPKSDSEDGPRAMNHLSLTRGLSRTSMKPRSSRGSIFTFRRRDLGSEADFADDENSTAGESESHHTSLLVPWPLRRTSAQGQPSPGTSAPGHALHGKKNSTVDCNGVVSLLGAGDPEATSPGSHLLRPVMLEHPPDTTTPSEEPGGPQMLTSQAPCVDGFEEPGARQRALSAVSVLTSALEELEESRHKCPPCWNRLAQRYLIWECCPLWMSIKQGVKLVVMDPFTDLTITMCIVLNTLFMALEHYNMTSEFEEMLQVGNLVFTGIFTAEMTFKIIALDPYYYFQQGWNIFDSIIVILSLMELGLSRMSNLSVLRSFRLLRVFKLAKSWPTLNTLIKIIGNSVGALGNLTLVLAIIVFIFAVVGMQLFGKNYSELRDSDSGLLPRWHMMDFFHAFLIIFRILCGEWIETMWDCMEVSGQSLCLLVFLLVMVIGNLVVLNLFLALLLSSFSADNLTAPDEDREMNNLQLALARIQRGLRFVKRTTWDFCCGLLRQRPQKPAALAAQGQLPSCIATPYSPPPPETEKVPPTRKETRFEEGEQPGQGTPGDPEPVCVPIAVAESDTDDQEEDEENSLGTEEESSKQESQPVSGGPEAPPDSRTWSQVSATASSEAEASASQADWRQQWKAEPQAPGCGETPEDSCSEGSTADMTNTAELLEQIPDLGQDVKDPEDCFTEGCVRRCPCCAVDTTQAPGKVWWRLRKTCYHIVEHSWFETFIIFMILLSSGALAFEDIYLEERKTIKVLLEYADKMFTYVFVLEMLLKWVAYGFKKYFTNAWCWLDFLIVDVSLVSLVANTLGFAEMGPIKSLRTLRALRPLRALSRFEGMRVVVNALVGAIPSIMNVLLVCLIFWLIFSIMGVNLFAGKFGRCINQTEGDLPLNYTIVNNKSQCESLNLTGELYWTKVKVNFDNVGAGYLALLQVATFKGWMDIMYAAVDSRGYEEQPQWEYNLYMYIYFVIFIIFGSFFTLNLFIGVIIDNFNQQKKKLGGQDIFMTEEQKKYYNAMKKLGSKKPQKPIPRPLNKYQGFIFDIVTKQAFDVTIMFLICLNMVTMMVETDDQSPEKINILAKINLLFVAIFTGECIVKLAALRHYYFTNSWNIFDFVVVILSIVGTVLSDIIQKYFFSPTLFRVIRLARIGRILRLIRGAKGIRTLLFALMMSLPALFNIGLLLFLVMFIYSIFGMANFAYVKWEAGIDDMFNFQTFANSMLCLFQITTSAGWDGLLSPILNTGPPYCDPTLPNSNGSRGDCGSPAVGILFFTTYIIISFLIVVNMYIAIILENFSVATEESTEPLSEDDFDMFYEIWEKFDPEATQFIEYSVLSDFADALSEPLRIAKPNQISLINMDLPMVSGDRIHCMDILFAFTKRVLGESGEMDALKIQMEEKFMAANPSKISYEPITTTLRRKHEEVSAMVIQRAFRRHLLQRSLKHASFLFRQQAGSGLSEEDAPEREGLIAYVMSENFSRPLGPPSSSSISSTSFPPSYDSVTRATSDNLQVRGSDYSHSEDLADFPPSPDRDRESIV

NaV1.1 [2] = target: T2, NaV1.1 (Homo sapiens (Human), UniProt P35498); assay: Sodium Influx Assay (Flux), NaV1.1; type: cell-based; settings: Trex HEK293 cells, ANG2 dye, inactivated state;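 further: channels co-expressed with human β1 subunit and held open by modulators, cells exposed to compounds for one hour at room temperature, IC50 from percent inhibition of influx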
NaV1.6 [3] = target: T1, NaV1.6; assay: Sodium Influx Assay (Flux), NaV1.6; type: cell-based; settings: Trex HEK293 cells, ANG2 dye, inactivated state;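 further: Tetracycline-induced cells, compounds applied for one hour at room temperature with modulators holding channels open, IC50 from percent inhibition of sodium influx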
NaV1.1 [4] = target: T2, NaV1.1; assay: Electrophysiological Assay (EP), patch voltage clamp, NaV1.1; type: cell-based; settings: HEK-293 cells, whole-cell patch clamp;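 further: sodium current block measured at ambient temperature, holding at fully inactivating potential, 20 ms repolarization to −150 mV before test pulse, versus 0.5% DMSO control currents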
[5] = read-out: Flux NaV1.5 IC50, Trex HEK293 cells, ANG2 dye, inactivated state

Structure (SMILES)	IC50 (NaV1.6 [1]) [nM]	IC50 (NaV1.1 [2]) [µM]	IC50 (NaV1.6 [3]) [nM]	IC50 (NaV1.1 [4]) [nM]	IC50 (NaV1.5; [5]) [µM]	IC50 (NaV1.5) [µM]
CCC(c1ccccc1)N(C)c1ccc(S(=O)(=O)Nc2nccs2)cc1Cl (stereo not drawn) [Example 90, 3-chloro-4-(methyl(1-phenylpropyl)amino)-N-(thiazol-2-yl)benzenesulfonamide]	–	4.05	–	2010	–	–
COC1(C)CN(Cc2cccc(F)c2CNc2cc(F)c(S(=O)(=O)Nc3cscn3)c(F)c2)C1 [Example 172, 2,6-difluoro-4-((2-fluoro-6-((3-methoxy-3-methylazetidin-1-yl)methyl)benzyl)amino)-N-(thiazol-4-yl)benzenesulfonamide formate]	23	25.8	78	–	30	–
O=S(=O)(Nc1cccc(F)n1)c1c(F)cc(NCc2c(F)cccc2CN2CCC2)cc1F [Example 322, 4-((2-(azetidin-1-ylmethyl)-6-fluorobenzyl)amino)-2,6-difluoro-N-(6-fluoropyridin-2-yl)benzenesulfonamide formate]	47	7.75	114	–	30	–
Cc1c(NCc2ccccc2CN2CCC2)cc(F)c(S(=O)(=O)Nc2ccncn2)c1F [Example 310, 4-((2-(azetidin-1-ylmethyl)benzyl)amino)-2,6-difluoro-3-methyl-N-(pyrimidin-4-yl)benzenesulfonamide 2,2,2-trifluoroacetate]	11	20.3	10	–	30	–
O=S(=O)(Nc1ncns1)c1c(F)cc(NCc2ccccc2CN2CCC2)c(Cl)c1F [Example 327, 4-((2-(azetidin-1-ylmethyl)benzyl)amino)-3-chloro-2,6-difluoro-N-(1,2,4-thiadiazol-5-yl)benzenesulfonamide formate]	1	4.44	3	–	30	–
O=S(=O)(Nc1ccccn1)c1c(F)cc(NCc2c(F)cccc2CN2CCC2)cc1F [Example 328, 4-((2-(azetidin-1-ylmethyl)-6-fluorobenzyl)amino)-2,6-difluoro-N-(pyridin-2-yl)benzenesulfonamide]	1040	30	3820	–	30	–
CCC(Nc1cc(F)c(S(=O)(=O)Nc2ncns2)cc1F)c1ccccc1 (stereo not drawn) [Example 85, 2,5-difluoro-4-((1-phenylpropyl)amino)-N-(1,2,4-thiadiazol-5-yl)benzenesulfonamide]	78	0.516	107	–	30	–
CC[C@H](Nc1ccc(S(=O)(=O)Nc2ncns2)cc1Cl)c1ccccc1 [Example 32, (S)-3-chloro-4-((1-phenylpropyl)amino)-N-(1,2,4-thiadiazol-5-yl)benzenesulfonamide]	23	1.06	92	–	12.8	–
O=S(=O)(Nc1ccsn1)c1c(F)cc(NCc2c(F)cccc2CN2CCC2)cc1F [Example 188, 4-((2-(azetidin-1-ylmethyl)-6-fluorobenzyl)amino)-2,6-difluoro-N-(isothiazol-3-yl)benzenesulfonamide 2,2,2-trifluoroacetate]	12	9.2	25	–	30	–
Cc1c(NCc2ccccc2CN2CCC2)cc(F)c(S(=O)(=O)Nc2ncns2)c1F [Example 330, 4-((2-(azetidin-1-ylmethyl)benzyl)amino)-2,6-difluoro-3-methyl-N-(1,2,4-thiadiazol-5-yl)benzenesulfonamide]	1	2	1	–	30	–
O=S(=O)(Nc1ccon1)c1c(F)cc(NCc2c(F)cccc2CN2CCC2)cc1F [Example 204, 4-((2-(azetidin-1-ylmethyl)-6-fluorobenzyl)amino)-2,6-difluoro-N-(isoxazol-3-yl)benzenesulfonamide 2,2,2-trifluoroacetate]	81	30	187	–	23.1	–
O=S(=O)(Nc1nccs1)c1ccc(N[C@H]2CCCc3cccnc32)c(Cl)c1 [Example 77, (S)-3-chloro-4-((5,6,7,8-tetrahydroquinolin-8-yl)amino)-N-(thiazol-2-yl)benzenesulfonamide]	–	7.98	8080	–	26.1	–
Cc1c(NCc2c(F)cccc2CN2CCC2)ccc(S(=O)(=O)Nc2ccon2)c1F [Example 315, 4-((2-(azetidin-1-ylmethyl)-6-fluorobenzyl)amino)-2-fluoro-N-(isoxazol-3-yl)-3-methylbenzenesulfonamide 2,2,2-trifluoroacetate]	–	30	270	–	30	–
CCC(Nc1cc(F)c(S(=O)(=O)Nc2cccc(F)n2)cc1Cl)c1ccccc1 (stereo not drawn) [Example 86, 5-chloro-2-fluoro-N-(6-fluoropyridin-2-yl)-4-((1-phenylpropyl)amino)benzenesulfonamide]	558	16.6	4060	–	12.7	–

Continued, in another order:

IC50 (NaV1.6 [1]) [nM]	IC50 (NaV1.1 [2]) [µM]	IC50 (NaV1.6 [3]) [nM]	IC50 (NaV1.1 [4]) [nM]	Structure (SMILES)	IC50 (NaV1.5; [5]) [µM]	IC50 (NaV1.5) [µM]
21	30	156	–	O=S(=O)(Nc1cscn1)c1ccc(NCc2c(F)ccc(F)c2CN2CCC2)c(F)c1F [Example 213, 4-((2-(azetidin-1-ylmethyl)-3,6-difluorobenzyl)amino)-2,3-difluoro-N-(thiazol-4-yl)benzenesulfonamide 2,2,2-trifluoroacetate]	30	–
982	3.91	328	–	Cc1cc(-c2cccc(F)c2CNc2cc(F)c(S(=O)(=O)Nc3cscn3)c(F)c2)ccn1 [Example 317, 2,6-difluoro-4-((2-fluoro-6-(2-methylpyridin-4-yl)benzyl)amino)-N-(thiazol-4-yl)benzenesulfonamide formate]	30	–
3	10.3	21	–	O=S(=O)(Nc1cscn1)c1c(F)cc(NCc2c(F)ccc(F)c2CN2CCC2)c(F)c1F [Example 215, 4-((2-(azetidin-1-ylmethyl)-3,6-difluorobenzyl)amino)-2,3,6-trifluoro-N-(thiazol-4-yl)benzenesulfonamide 2,2,2-trifluoroacetate]	21.5	–
2	4.65	29	–	O=S(=O)(Nc1cscn1)c1cc(Cl)c(NCc2c(F)ccc3cn[nH]c23)cc1F [Example 334, 5-chloro-2-fluoro-4-(((6-fluoro-1H-indazol-7-yl)methyl)amino)-N-(thiazol-4-yl)benzenesulfonamide formate]	30	–
–	10.7	342	–	CC(C)CN(C)Cc1cccc(F)c1CNc1cc(F)c(S(=O)(=O)Nc2cscn2)c(F)c1 [Example 175, 2,6-difluoro-4-((2-fluoro-6-((isobutyl(methyl)amino)methyl)benzyl)amino)-N-(thiazol-4-yl)benzenesulfonamide]	14.5	–
–	8.82	1220	–	C[C@H](Nc1cc(F)c(S(=O)(=O)Nc2cscn2)cc1Cl)c1cc(CN2CCCCC2)ccc1F [Example 256, (S)-5-chloro-2-fluoro-4-((1-(2-fluoro-5-(piperidin-1-ylmethyl)phenyl)ethyl)amino)-N-(thiazol-4-yl)benzenesulfonamide formate]	6.97	–
2	5.3	8	–	Cc1c(NCc2c(F)cccc2CN2CCC2)cc(F)c(S(=O)(=O)Nc2cscn2)c1F [Example 304, 4-((2-(azetidin-1-ylmethyl)-6-fluorobenzyl)amino)-2,6-difluoro-3-methyl-N-(thiazol-4-yl)benzenesulfonamide 2,2,2-trifluoroacetate]	21.2	–
–	≥ 30	405	–	CN(Cc1cccc(F)c1CNc1cc(F)c(S(=O)(=O)Nc2cscn2)c(F)c1)CC1(C)COC1 [Example 167, 2,6-difluoro-4-((2-fluoro-6-((methyl((3-methyloxetan-3-yl)methyl)amino)methyl)benzyl)amino)-N-(thiazol-4-yl)benzenesulfonamide formate]	–	≥ 30
–	28.4	3210	–	COCc1cccc(F)c1CNc1cc(F)c(S(=O)(=O)Nc2cscn2)cc1Cl [Example 218, 5-chloro-2-fluoro-4-((2-fluoro-6-(methoxymethyl)benzyl)amino)-N-(thiazol-4-yl)benzenesulfonamide]	20.9	–
–	9.38	518	–	C=Cc1cc(S(=O)(=O)Nc2cscn2)c(F)cc1NCc1ccccc1CN1CCC1 [Example 323, 4-((2-(azetidin-1-ylmethyl)benzyl)amino)-2-fluoro-N-(thiazol-4-yl)-5-vinylbenzenesulfonamide formate]	15	–
–	30	3020	–	C[C@H](Nc1cc(F)c(S(=O)(=O)Nc2cscn2)cc1Cl)c1cc(OCC2COC2)ccc1F [Example 236, (S)-5-chloro-2-fluoro-4-((1-(2-fluoro-5-(oxetan-3-ylmethoxy)phenyl)ethyl)amino)-N-(thiazol-4-yl)benzenesulfonamide]	30	–
–	22.8	84	–	CC1CN(Cc2cccc(F)c2CNc2cc(F)c(S(=O)(=O)Nc3cscn3)c(F)c2)C1 [Example 164, 2,6-difluoro-4-((2-fluoro-6-((3-methylazetidin-1-yl)methyl)benzyl)amino)-N-(thiazol-4-yl)benzenesulfonamide formate]	20.3	–
–	5.73	7	–	O=S(=O)(Nc1cscn1)c1c(F)cc(NCc2c(F)cccc2CN2CCC2)c(Cl)c1F [Example 303, 4-((2-(azetidin-1-ylmethyl)-6-fluorobenzyl)amino)-3-chloro-2,6-difluoro-N-(thiazol-4-yl)benzenesulfonamide 2,2,2-trifluoroacetate]	24.5	–
